According to article PMC8333425, “Discovery of a dual Ras and ARF6 inhibitor from a GPCR endocytosis screen” (Nature Communications, 2021):

Assays:
Assay in all cases: KINOMEscan kinase binding assay
[1] = target: T1, 384 kinases from the human genome (Homo sapiens, UniProt P37023); conditions: kinase ACVRL1 (Entrez ACVRL1)
T1 construct: purchased Eurofin/DiscoverX
From the text: (§1) We reasoned that because internalizing AT1R and its targeting to intracellular compartments can support continued MAPK signaling, and since 21 inhibits receptor internalization, it should also impede to some extent ERK1/2 activation. […] Receptor-mediated ERK1/2 signaling can involve upstream kinases such as PKC, BRAF, and MEK1[35],[36]. […] To exclude other kinases potentially involved in ERK1/2 and Akt activation as targets of 21, we ran a kinase binding assay (KINOMEscan™) on 384 kinases from the human genome. Remarkably, a very high selectivity score S(10) of 0.008 was found (Supplementary Data 3).
(§2) The chemical library used for initial screening was from Chembridge DiverSet™ (60,000 compounds), Maybridge HitFinder™ (16,000 compounds), Maybridge (selected, 16,000 compounds), SPECS (selected, 16000 compounds), Microsource Discovery Spectrum (2000 compounds), Biomol (natural products, 500 compounds), Prestwick (commercialized products, 1120 compounds), SIGMA LopacTM (1280 compounds) and internal collection (synthesized at Université de Montréal-IRIC, ~4000 compounds). Compounds were all assigned an Université de Montréal number (UM) for internal use. Screen was performed at IRIC HTS facility. KINOMEscan™ profiling was serviced by Eurofin/DiscoverX (San Diego, USA).
(§3) Description of Additional Supplementary Files […]
(§4) File Name: Supplementary Data 3
(§5) Description: KINOMEscan results. Compound 21’s effect was tested on 384 kinases. Data represent kinases binding to their ligands in presence of 10 µM of 21, as compared to DMSO (100%). Results are from one experiment and represent the average of duplicates. Three kinases (FLT3, KIT, and PDGFRB) out of 384 were more than 90% affected (selectivity score S(10) of 0.008). […]

[2] = target: T2, 384 kinases from the human genome (Homo sapiens, UniProt Q99640); conditions: kinase PKMYT1 (Entrez PKMYT1)
T2 construct: purchased Eurofin/DiscoverX
From the text: as §1, §2, §3, §4, §5

[3] = target: T3, 384 kinases from the human genome (Homo sapiens, UniProt O43683); conditions: kinase BUB1 (Entrez BUB1)
T3 construct: purchased Eurofin/DiscoverX
From the text: as §1, §2, §3, §4, §5

[4] = target: T4, 384 kinases from the human genome (Homo sapiens, UniProt P53779); conditions: kinase JNK3 (Entrez MAPK10)
T4 construct: purchased Eurofin/DiscoverX
From the text: as §1, §2, §3, §4, §5

[5] = target: T5, 384 kinases from the human genome (Homo sapiens, UniProt Q5VT25); conditions: kinase MRCKA (Entrez CDC42BPA)
T5 construct: purchased Eurofin/DiscoverX
From the text: as §1, §2, §3, §4, §5

[6] = target: T6, 384 kinases from the human genome (Homo sapiens, UniProt Q9UEW8); conditions: kinase STK39 (Entrez STK39)
T6 construct: purchased Eurofin/DiscoverX
From the text: as §1, §2, §3, §4, §5

[7] = target: T7, 384 kinases from the human genome (Homo sapiens, UniProt P57058); conditions: kinase HUNK (Entrez HUNK)
T7 construct: purchased Eurofin/DiscoverX
From the text: as §1, §2, §3, §4, §5

[8] = target: T8, 384 kinases from the human genome (Homo sapiens, UniProt Q15208); conditions: kinase NDR1 (Entrez STK38)
T8 construct: purchased Eurofin/DiscoverX
From the text: as §1, §2, §3, §4, §5

[9] = target: T9, 384 kinases from the human genome (Homo sapiens, UniProt Q14680); conditions: kinase MELK (Entrez MELK)
T9 construct: purchased Eurofin/DiscoverX
From the text: as §1, §2, §3, §4, §5

[10] = target: T10, 384 kinases from the human genome (Homo sapiens, UniProt Q13153); conditions: kinase PAK1 (Entrez PAK1)
T10 construct: purchased Eurofin/DiscoverX
From the text: as §1, §2, §3, §4, §5

[11] = target: T11, 384 kinases from the human genome (Homo sapiens, UniProt Q16816); conditions: kinase PHKG1 (Entrez PHKG1)
T11 construct: purchased Eurofin/DiscoverX
From the text: as §1, §2, §3, §4, §5

[12] = target: T12, 384 kinases from the human genome (Homo sapiens, UniProt Q9BXA7); conditions: kinase TSSK1B (Entrez TSSK1B)
T12 construct: purchased Eurofin/DiscoverX
From the text: as §1, §2, §3, §4, §5

[13] = target: T13, 384 kinases from the human genome (Homo sapiens, UniProt Q9Y243); conditions: kinase AKT3 (Entrez AKT3)
T13 construct: purchased Eurofin/DiscoverX
From the text: as §1, §2, §3, §4, §5

[14] = target: T14, 384 kinases from the human genome (Homo sapiens, UniProt Q9UQM7); conditions: kinase CAMK2A (Entrez CAMK2A)
T14 construct: purchased Eurofin/DiscoverX
From the text: as §1, §2, §3, §4, §5

[15] = target: T15, 384 kinases from the human genome (Homo sapiens, UniProt P21127); conditions: kinase CDC2L1 (Entrez CDK11B)
T15 construct: purchased Eurofin/DiscoverX
From the text: as §1, §2, §3, §4, §5

[16] = target: T16, 384 kinases from the human genome (Homo sapiens, UniProt Q86UE8); conditions: kinase TLK2 (Entrez TLK2)
T16 construct: purchased Eurofin/DiscoverX
From the text: as §1, §2, §3, §4, §5

[17] = target: T17, 384 kinases from the human genome (Homo sapiens, UniProt Q9HBH9); conditions: kinase MKNK2 (Entrez MKNK2)
T17 construct: purchased Eurofin/DiscoverX
From the text: as §1, §2, §3, §4, §5

[18] = target: T18, 384 kinases from the human genome (Homo sapiens, UniProt P51813); conditions: kinase BMX (Entrez BMX)
T18 construct: purchased Eurofin/DiscoverX
From the text: as §1, §2, §3, §4, §5

[19] = target: T19, 384 kinases from the human genome (Homo sapiens, UniProt P06213); conditions: kinase INSR (Entrez INSR)
T19 construct: purchased Eurofin/DiscoverX
From the text: as §1, §2, §3, §4, §5

[20] = target: T20, 384 kinases from the human genome (Homo sapiens, UniProt P49137); conditions: kinase MAPKAPK2 (Entrez MAPKAPK2)
T20 construct: purchased Eurofin/DiscoverX
From the text: as §1, §2, §3, §4, §5

[21] = target: T21, 384 kinases from the human genome (Homo sapiens, UniProt P42679); conditions: kinase CTK (Entrez MATK)
T21 construct: purchased Eurofin/DiscoverX
From the text: as §1, §2, §3, §4, §5

[22] = target: T22, 384 kinases from the human genome (Homo sapiens, UniProt Q56UN5); conditions: kinase YSK4 (Entrez MAP3K19)
T22 construct: purchased Eurofin/DiscoverX
From the text: as §1, §2, §3, §4, §5

[23] = target: T23, 384 kinases from the human genome (Homo sapiens, UniProt P29322); conditions: kinase EPHA8 (Entrez EPHA8)
T23 construct: purchased Eurofin/DiscoverX
From the text: as §1, §2, §3, §4, §5

[24] = target: T24, 384 kinases from the human genome (Homo sapiens, UniProt P0C264); conditions: kinase SgK110 (Entrez SgK110)
T24 construct: purchased Eurofin/DiscoverX
From the text: as §1, §2, §3, §4, §5

[25] = target: T25, 384 kinases from the human genome (Homo sapiens, UniProt Q9UBE8); conditions: kinase NLK (Entrez NLK)
T25 construct: purchased Eurofin/DiscoverX
From the text: as §1, §2, §3, §4, §5

[26] = target: T26, 384 kinases from the human genome (Homo sapiens, UniProt Q8TD08); conditions: kinase ERK8 (Entrez MAPK15)
T26 construct: purchased Eurofin/DiscoverX
From the text: as §1, §2, §3, §4, §5

T22 sequence (Q56UN5 whole entry): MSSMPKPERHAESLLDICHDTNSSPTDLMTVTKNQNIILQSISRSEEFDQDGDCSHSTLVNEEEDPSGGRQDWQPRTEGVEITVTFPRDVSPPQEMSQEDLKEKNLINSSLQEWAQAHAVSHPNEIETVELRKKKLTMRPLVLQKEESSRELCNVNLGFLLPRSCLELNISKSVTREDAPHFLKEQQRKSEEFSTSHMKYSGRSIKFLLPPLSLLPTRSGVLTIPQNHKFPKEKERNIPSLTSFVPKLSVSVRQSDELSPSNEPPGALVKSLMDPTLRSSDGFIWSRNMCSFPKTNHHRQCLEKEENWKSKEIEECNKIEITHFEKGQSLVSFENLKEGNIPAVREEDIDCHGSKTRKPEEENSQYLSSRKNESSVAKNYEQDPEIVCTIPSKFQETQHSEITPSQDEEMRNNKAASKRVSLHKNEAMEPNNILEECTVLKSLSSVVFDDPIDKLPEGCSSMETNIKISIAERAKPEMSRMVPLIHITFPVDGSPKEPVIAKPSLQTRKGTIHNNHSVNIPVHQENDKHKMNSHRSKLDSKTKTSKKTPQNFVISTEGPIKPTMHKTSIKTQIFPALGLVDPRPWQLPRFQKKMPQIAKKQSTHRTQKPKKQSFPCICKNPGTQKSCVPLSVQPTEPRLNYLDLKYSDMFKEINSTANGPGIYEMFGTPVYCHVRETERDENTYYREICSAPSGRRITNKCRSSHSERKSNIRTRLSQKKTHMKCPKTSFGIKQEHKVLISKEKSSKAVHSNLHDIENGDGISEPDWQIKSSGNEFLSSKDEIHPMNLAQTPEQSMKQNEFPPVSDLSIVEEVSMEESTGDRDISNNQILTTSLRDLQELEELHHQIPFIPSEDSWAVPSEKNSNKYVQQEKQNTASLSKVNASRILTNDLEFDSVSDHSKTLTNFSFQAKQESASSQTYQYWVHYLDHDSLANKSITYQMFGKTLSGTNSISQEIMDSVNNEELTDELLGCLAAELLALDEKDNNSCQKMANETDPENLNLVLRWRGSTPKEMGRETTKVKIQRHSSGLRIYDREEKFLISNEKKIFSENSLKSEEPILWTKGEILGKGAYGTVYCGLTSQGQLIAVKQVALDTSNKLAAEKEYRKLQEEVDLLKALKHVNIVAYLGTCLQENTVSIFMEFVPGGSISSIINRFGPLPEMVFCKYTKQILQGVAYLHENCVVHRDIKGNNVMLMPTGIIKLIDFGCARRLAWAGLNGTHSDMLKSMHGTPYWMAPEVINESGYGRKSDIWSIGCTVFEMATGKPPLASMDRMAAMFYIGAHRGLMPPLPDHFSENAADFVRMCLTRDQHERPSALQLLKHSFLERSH
T21 sequence (P42679 whole entry): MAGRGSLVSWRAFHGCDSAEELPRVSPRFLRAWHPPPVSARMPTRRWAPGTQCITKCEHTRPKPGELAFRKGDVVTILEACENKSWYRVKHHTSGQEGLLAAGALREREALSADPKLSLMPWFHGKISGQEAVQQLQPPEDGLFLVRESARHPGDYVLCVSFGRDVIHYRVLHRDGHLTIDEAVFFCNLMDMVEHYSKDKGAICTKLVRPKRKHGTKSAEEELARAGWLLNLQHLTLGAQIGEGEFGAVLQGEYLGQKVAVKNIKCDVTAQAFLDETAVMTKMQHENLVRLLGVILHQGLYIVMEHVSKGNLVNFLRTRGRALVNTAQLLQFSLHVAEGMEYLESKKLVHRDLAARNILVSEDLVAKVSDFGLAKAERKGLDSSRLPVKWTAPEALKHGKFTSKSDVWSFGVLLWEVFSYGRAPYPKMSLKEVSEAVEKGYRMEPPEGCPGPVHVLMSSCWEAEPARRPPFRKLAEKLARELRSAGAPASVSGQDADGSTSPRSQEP
T18 sequence (P51813 whole entry): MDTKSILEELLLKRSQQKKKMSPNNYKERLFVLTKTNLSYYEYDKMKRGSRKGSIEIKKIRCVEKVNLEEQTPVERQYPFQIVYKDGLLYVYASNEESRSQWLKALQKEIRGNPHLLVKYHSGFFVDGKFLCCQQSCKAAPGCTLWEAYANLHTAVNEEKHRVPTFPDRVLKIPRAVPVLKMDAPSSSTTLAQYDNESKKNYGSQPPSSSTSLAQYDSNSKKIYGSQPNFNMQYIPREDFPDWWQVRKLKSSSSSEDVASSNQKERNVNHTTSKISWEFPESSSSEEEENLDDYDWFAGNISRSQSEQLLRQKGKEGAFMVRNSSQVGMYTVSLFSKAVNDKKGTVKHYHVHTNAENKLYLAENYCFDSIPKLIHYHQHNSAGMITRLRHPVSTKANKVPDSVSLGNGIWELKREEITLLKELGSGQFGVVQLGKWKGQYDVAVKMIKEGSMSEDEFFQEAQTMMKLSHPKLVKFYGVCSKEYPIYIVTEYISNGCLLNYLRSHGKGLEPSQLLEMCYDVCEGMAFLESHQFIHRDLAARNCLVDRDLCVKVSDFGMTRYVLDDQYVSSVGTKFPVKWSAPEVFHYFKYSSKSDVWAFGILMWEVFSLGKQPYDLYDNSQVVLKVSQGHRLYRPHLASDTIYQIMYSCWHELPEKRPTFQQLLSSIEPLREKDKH
T9 sequence (Q14680 whole entry): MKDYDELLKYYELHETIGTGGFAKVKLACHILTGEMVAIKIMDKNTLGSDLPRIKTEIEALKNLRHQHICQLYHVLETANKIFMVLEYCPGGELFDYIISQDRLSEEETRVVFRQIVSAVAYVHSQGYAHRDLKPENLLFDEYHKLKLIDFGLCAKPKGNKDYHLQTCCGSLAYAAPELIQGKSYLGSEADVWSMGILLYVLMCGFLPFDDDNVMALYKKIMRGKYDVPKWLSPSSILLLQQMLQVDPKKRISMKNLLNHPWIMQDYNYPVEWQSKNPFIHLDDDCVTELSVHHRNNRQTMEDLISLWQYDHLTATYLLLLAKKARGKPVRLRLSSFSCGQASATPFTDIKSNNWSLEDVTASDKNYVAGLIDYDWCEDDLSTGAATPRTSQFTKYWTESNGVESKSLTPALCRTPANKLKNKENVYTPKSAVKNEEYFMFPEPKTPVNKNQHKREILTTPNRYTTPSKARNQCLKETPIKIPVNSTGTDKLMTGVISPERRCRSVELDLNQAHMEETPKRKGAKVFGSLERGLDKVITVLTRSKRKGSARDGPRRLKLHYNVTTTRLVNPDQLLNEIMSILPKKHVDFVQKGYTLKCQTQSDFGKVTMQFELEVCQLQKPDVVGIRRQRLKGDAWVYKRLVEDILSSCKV
T5 sequence (Q5VT25 whole entry): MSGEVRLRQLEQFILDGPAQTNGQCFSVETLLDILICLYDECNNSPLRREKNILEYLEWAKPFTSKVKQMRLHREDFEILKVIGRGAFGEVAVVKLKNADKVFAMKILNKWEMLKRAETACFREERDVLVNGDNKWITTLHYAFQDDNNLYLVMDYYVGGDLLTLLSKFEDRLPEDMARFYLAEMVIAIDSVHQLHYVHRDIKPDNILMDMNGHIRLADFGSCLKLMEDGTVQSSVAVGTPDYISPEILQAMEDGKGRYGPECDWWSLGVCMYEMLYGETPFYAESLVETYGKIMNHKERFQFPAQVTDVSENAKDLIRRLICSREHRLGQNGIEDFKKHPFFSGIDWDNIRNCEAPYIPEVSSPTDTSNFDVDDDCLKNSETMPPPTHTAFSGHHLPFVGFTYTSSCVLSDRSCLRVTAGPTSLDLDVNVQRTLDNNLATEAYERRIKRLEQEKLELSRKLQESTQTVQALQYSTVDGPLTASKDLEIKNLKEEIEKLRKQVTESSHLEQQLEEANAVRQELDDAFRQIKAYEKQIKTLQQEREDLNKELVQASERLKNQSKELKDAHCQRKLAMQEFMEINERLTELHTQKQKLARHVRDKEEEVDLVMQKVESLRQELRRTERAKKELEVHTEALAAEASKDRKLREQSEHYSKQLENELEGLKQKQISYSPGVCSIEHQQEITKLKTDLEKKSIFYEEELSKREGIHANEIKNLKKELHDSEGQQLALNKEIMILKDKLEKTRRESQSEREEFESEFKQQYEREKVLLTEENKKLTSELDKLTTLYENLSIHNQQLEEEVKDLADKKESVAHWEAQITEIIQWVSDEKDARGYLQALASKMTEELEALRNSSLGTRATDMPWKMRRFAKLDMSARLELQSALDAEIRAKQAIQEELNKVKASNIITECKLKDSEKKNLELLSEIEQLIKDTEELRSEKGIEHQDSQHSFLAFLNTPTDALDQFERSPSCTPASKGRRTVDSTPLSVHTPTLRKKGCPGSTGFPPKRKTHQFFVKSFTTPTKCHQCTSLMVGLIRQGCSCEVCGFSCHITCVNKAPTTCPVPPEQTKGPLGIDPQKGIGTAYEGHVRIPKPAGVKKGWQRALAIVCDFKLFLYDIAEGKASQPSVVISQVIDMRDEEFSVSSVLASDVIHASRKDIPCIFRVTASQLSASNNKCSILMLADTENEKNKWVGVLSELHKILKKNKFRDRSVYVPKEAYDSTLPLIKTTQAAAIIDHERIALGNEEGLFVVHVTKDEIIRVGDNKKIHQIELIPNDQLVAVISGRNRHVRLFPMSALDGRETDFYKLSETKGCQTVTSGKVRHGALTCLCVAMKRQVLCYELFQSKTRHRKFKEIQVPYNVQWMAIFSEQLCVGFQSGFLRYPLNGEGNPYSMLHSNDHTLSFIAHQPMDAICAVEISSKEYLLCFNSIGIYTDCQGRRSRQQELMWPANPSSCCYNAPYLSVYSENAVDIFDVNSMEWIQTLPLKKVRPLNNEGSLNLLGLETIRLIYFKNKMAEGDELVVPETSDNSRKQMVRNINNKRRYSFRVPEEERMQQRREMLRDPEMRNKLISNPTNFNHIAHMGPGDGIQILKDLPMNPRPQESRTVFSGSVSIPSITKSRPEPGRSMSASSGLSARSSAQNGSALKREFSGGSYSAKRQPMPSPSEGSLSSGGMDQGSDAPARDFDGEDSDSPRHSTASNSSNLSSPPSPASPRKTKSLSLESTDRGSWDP

## CC(C)C(=O)N1CCN(c2ccc(NC(=O)c3cc4ccccc4o3)cc2Cl)CC1 [Compound 21]
[1]
  Percent Control: 94%
[2]
  Percent Control: 83%
[3]
  Percent Control: 99%
[4]
  Percent Control: 75%
[5]
  Percent Control: 68%
[6]
  Percent Control: 100%
[7]
  Percent Control: 69%
[8]
  Percent Control: 91%
[9]
  Percent Control: 29%
[10]
  Percent Control: 92%
[11]
  Percent Control: 87%
[12]
  Percent Control: 100%
[13]
  Percent Control: 100%
[14]
  Percent Control: 100%
[15]
  Percent Control: 100%
[16]
  Percent Control: 100%
[17]
  Percent Control: 97%
[18]
  Percent Control: 68%
[19]
  Percent Control: 82%
[20]
  Percent Control: 100%
[21]
  Percent Control: 95%
[22]
  Percent Control: 98%
[23]
  Percent Control: 94%
[24]
  Percent Control: 79%
[25]
  Percent Control: 100%
[26]
  Percent Control: 100%
